From patent US20230085307A1, “PYRIDAZINONE COMPOUND AND HERBICIDE” (NISSAN CHEMICAL CORPORATION, priority 2019, published 2023)

Legend:
green foxtail [1] = experiment: Test Example 4: herbicidal effect by soil treatment (Table 19, symbol G); type: in vivo, green foxtail (Setaria viridis); settings: 320 g/ha
Method in brief: (§1)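 In this soil treatment, the formulated compound reached the seeds only through the soil: seeds were buried about 1.5 cm deep in sterilized diluvial soil, then the diluted emulsion was sprayed over the surface. After three weeks at 25° C. to 30° C. in a greenhouse, effects were graded on criteria from an earlier test.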

oval-leafed pondweed = experiment: Test Example 2: herbicidal activity, application during weed generation under submerged conditions (Table 17, symbol C); type: in vivo, oval-leafed pondweed (Monochoria vaginalis); settings: AAH 320 g/ha; application during weed generation, submerged conditions
Method in brief: (§2)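 Mixed weed seedlings in alluvial soil under a 4 cm water layer, greenhouse-grown at 25–30° C. Compound given as a diluted emulsion into the floodwater at the 1–2 leaf stage; response graded after three weeks.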

chickweed = experiment: Test Example 4: herbicidal effect by soil treatment (Table 19, symbol P); type: in vivo, common chickweed (Stellaria media); settings: 320 g/ha
Method in brief: as §1

windgrass [2] = experiment: Test Example 5: herbicidal effect by foliage application, plastic box (Table 20, symbol L); type: in vivo, windgrass (Apera spica-venti); settings: foliage application, 320 g/ha, 3 weeks after application
Method in brief: (§3)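 Plants were sown into sterilized diluvial soil under about 1.5 cm cover and kept in a greenhouse at 25° C. to 30° C. Fourteen days on, foliage received an even spray of the diluted emulsion. Herbicidal or crop effect was judged three weeks afterwards.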

barnyard grass [3] = experiment: Test Example 5: herbicidal effect by foliage application, plastic box (Table 20, symbol H); type: in vivo, barnyard grass (Echinochloa crus-galli); settings: foliage application, 320 g/ha, 3 weeks after application
Method in brief: as §3

late watergrass = experiment: Test Example 2: herbicidal activity, application during weed generation under submerged conditions (Table 17, symbol A); type: in vivo, late watergrass (Echinochloa oryzicola); settings: AAH 320 g/ha; application during weed generation, submerged conditions
Method in brief: as §2

Chinese sprangletop = experiment: Test Example 3: herbicidal effect by foliage application, Wagner pot (Table 18, symbol D); type: in vivo, chinese sprangletop (Leptochloa chinensis); settings: 320 g/ha
Method in brief: (§4)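 Plants were sown in alluvial soil held under 0.1–0.5 cm standing water and grown 14 days in a greenhouse at 25–30 °C. An emulsifiable formulation, water-diluted to the set dose, was then sprayed onto the foliage, and effects were scored three weeks later using previously defined criteria.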

green foxtail [4] = experiment: Test Example 5: herbicidal effect by foliage application, plastic box (Table 20, symbol G); type: in vivo, green foxtail (Setaria viridis); settings: foliage application, 320 g/ha, 3 weeks after application
Method in brief: as §3

persian speedwell [5] = experiment: Test Example 5: herbicidal effect by foliage application, plastic box (Table 20, symbol R); type: in vivo, Persian speedwell (Veronica persica); settings: foliage application, 320 g/ha, 3 weeks after application
Method in brief: as §3

barnyard grass [6] = experiment: Test Example 3: herbicidal effect by foliage application, Wagner pot (Table 18, symbol H); type: in vivo, barnyard grass (Echinochloa crus-galli); settings: 320 g/ha
Method in brief: as §4

Italian ryegrass [7] = experiment: Test Example 5: herbicidal effect by foliage application, plastic box (Table 20, symbol K); type: in vivo, Italian ryegrass (Lolium multiflorum); settings: foliage application, 320 g/ha, 3 weeks after application
Method in brief: as §3

rice flat sedge = experiment: Test Example 3: herbicidal effect by foliage application, Wagner pot (Table 18, symbol E); type: in vivo, rice flat sedge (Cyperus iria); settings: 320 g/ha
Method in brief: as §4

velvetleaf [8] = experiment: Test Example 5: herbicidal effect by foliage application, plastic box (Table 20, symbol M); type: in vivo, velvetleaf (Abutilon theophrasti); settings: foliage application, 320 g/ha, 3 weeks after application
Method in brief: as §3

velvetleaf [9] = experiment: Test Example 4: herbicidal effect by soil treatment (Table 19, symbol M); type: in vivo, velvetleaf (Abutilon theophrasti); settings: 320 g/ha
Method in brief: as §1

persian speedwell [10] = experiment: Test Example 4: herbicidal effect by soil treatment (Table 19, symbol R); type: in vivo, Persian speedwell (Veronica persica); settings: 320 g/ha
Method in brief: as §1

blackgrass [11] = experiment: Test Example 4: herbicidal effect by soil treatment (Table 19, symbol J); type: in vivo, blackgrass (Alopecurus myosuroides); settings: 320 g/ha
Method in brief: as §1

windgrass [12] = experiment: Test Example 4: herbicidal effect by soil treatment (Table 19, symbol L); type: in vivo, windgrass (Apera spica-venti); settings: 320 g/ha
Method in brief: as §1

lambsquarters [13] = experiment: Test Example 5: herbicidal effect by foliage application, plastic box (Table 20, symbol O); type: in vivo, lambsquarters (Chenopodium album); settings: foliage application, 320 g/ha, 3 weeks after application
Method in brief: as §3

false cleavers [14] = experiment: Test Example 4: herbicidal effect by soil treatment (Table 19, symbol Q); type: in vivo, false cleavers (Galium spurium); settings: 320 g/ha
Method in brief: as §1

wild oat [15] = experiment: Test Example 5: herbicidal effect by foliage application, plastic box (Table 20, symbol I); type: in vivo, wild oat (Avena fatua); settings: foliage application, 320 g/ha, 3 weeks after application
Method in brief: as §3

blackgrass [16] = experiment: Test Example 5: herbicidal effect by foliage application, plastic box (Table 20, symbol J); type: in vivo, blackgrass (Alopecurus myosuroides); settings: foliage application, 320 g/ha, 3 weeks after application
Method in brief: as §3

lambsquarters [17] = experiment: Test Example 4: herbicidal effect by soil treatment (Table 19, symbol O); type: in vivo, lambsquarters (Chenopodium album); settings: 320 g/ha
Method in brief: as §1

barnyard grass [18] = experiment: Test Example 4: herbicidal effect by soil treatment (Table 19, symbol H); type: in vivo, barnyard grass (Echinochloa crus-galli); settings: 320 g/ha
Method in brief: as §1

southern crabgrass [19] = experiment: Test Example 4: herbicidal effect by soil treatment (Table 19, symbol F); type: in vivo, southern crabgrass (Digitaria ciliaris); settings: 320 g/ha
Method in brief: as §1

Italian ryegrass [20] = experiment: Test Example 4: herbicidal effect by soil treatment (Table 19, symbol K); type: in vivo, Italian ryegrass (Lolium multiflorum); settings: 320 g/ha
Method in brief: as §1

false cleavers [21] = experiment: Test Example 5: herbicidal effect by foliage application, plastic box (Table 20, symbol Q); type: in vivo, false cleavers (Galium spurium); settings: foliage application, 320 g/ha, 3 weeks after application
Method in brief: as §3

wild oat [22] = experiment: Test Example 4: herbicidal effect by soil treatment (Table 19, symbol I); type: in vivo, wild oat (Avena fatua); settings: 320 g/ha
Method in brief: as §1

redroot pigweed = experiment: Test Example 4: herbicidal effect by soil treatment (Table 19, symbol N); type: in vivo, redroot pigweed (Amaranthus retroflexus); settings: 320 g/ha
Method in brief: as §1

Japanese bulrush = experiment: Test Example 2: herbicidal activity, application during weed generation under submerged conditions (Table 17, symbol B); type: in vivo, Japanese bulrush (Schoenoplectus juncoides); settings: AAH 320 g/ha; application during weed generation, submerged conditions
Method in brief: as §2

southern crabgrass [23] = experiment: Test Example 5: herbicidal effect by foliage application, plastic box (Table 20, symbol F); type: in vivo, southern crabgrass (Digitaria ciliaris); settings: foliage application, 320 g/ha, 3 weeks after application
Method in brief: as §3

Structure (SMILES): CCCC(=O)Oc1c(C)nn(C)c(=O)c1-c1c(-c2ccc(F)cc2)sc2ccc(F)cc12 [2-002]
- herbicidal effect rating, G: green foxtail (green foxtail [1]): 5 (Herbicidal rate of 90% or more (almost completely withered))
- herbicidal effect rating, C: oval-leafed pondweed (oval-leafed pondweed): 3 (Herbicidal rate of 40% or more and less than 70%)
- herbicidal effect rating, P: chickweed (chickweed): 3 (Herbicidal rate of 40% or more and less than 70%)
- effect on windgrass (L) (windgrass [2]): 3 (Herbicidal rate of 40% or more and less than 70%)
- effect on barnyard grass (H) (barnyard grass [3]): 5 (Herbicidal rate of 90% or more (almost completely withered))
- herbicidal effect rating, A: late watergrass (late watergrass): 2 (Herbicidal rate of 20% or more and less than 40%)
- herbicidal effect on D (Chinese sprangletop), rating 0-5 (Chinese sprangletop): 5 (Herbicidal rate of 90% or more (almost completely withered))
- effect on green foxtail (G) (green foxtail [4]): 5 (Herbicidal rate of 90% or more (almost completely withered))
- effect on persian speedwell (R) (persian speedwell [5]): 5 (Herbicidal rate of 90% or more (almost completely withered))
- herbicidal effect on H (barnyard grass), rating 0-5 (barnyard grass [6]): 5 (Herbicidal rate of 90% or more (almost completely withered))
- effect on Italian ryegrass (K) (Italian ryegrass [7]): 5 (Herbicidal rate of 90% or more (almost completely withered))
- herbicidal effect on E (rice flat sedge), rating 0-5 (rice flat sedge): 5 (Herbicidal rate of 90% or more (almost completely withered))
- effect on velvetleaf (M) (velvetleaf [8]): 5 (Herbicidal rate of 90% or more (almost completely withered))
- herbicidal effect rating, M: velvetleaf (velvetleaf [9]): 5 (Herbicidal rate of 90% or more (almost completely withered))
- herbicidal effect rating, R: persian speedwell (persian speedwell [10]): 5 (Herbicidal rate of 90% or more (almost completely withered))
- herbicidal effect rating, J: blackgrass (blackgrass [11]): 1 (Herbicidal rate of 5% or more and less than 20%)
- herbicidal effect rating, L: windgrass (windgrass [12]): 1 (Herbicidal rate of 5% or more and less than 20%)
- effect on lambsquarters (O) (lambsquarters [13]): 5 (Herbicidal rate of 90% or more (almost completely withered))
- herbicidal effect rating, Q: false cleavers (false cleavers [14]): 4 (Herbicidal rate of 70% or more and less than 90%)
- effect on wild oat (I) (wild oat [15]): 4 (Herbicidal rate of 70% or more and less than 90%)
- effect on blackgrass (J) (blackgrass [16]): 4 (Herbicidal rate of 70% or more and less than 90%)
- herbicidal effect rating, O: lambsquarters (lambsquarters [17]): 4 (Herbicidal rate of 70% or more and less than 90%)
- herbicidal effect rating, H: barnyard grass (barnyard grass [18]): 4 (Herbicidal rate of 70% or more and less than 90%)
- herbicidal effect rating, F: southern crabgrass (southern crabgrass [19]): 5 (Herbicidal rate of 90% or more (almost completely withered))
- herbicidal effect rating, K: Italian ryegrass (Italian ryegrass [20]): 5 (Herbicidal rate of 90% or more (almost completely withered))
- effect on false cleavers (Q) (false cleavers [21]): 5 (Herbicidal rate of 90% or more (almost completely withered))
- herbicidal effect rating, I: wild oat (wild oat [22]): 3 (Herbicidal rate of 40% or more and less than 70%)
- herbicidal effect rating, N: redroot pigweed (redroot pigweed): 5 (Herbicidal rate of 90% or more (almost completely withered))
- herbicidal effect rating, B: Japanese bulrush (Japanese bulrush): 0 (Herbicidal rate of 5% or less (almost no effect))
- effect on southern crabgrass (F) (southern crabgrass [23]): 5 (Herbicidal rate of 90% or more (almost completely withered))
